According to ChEMBL document CHEMBL4483862, “Open-source discovery of chemical leads for next-generation chemoprotective antimalarials” (2018):

Tested on: Plasmodium berghei
Experiment: Luciferase/luciferin-expressing antifolate-resistant parasites were used to infect a culture of HepG2 cells that were pre-incubated with compounds. Infected hepatocytes emit light due to the luciferase reaction. Assay results are presented as the percent inhibition of light emission compared to control. […]
Assay type: functional
Details: sporozoite; for IC90: read-out: LUCIFERASE INFECTION ASSAY - IC90

| SMILES | IC90 [µM] | also measured |
| --- | --- | --- |
| CC(Sc1ncnc2sc(-c3ccccc3)cc12)C(=O)N1CCNC1=O (centres undefined) | > 10 | IC50 (PBLUC_HILL_SLOPE 3.73, PBLUC_R_SQUARED 0.46, read-out: LUCIFERASE INFECTION ASSAY - IC50): 5.98 µM |
| O=C(Nc1cccc(Cl)c1)Nc1cccc(Cl)c1 | 5.51 | IC50 (PBLUC_HILL_SLOPE 3.72, PBLUC_R_SQUARED 0.618, read-out: LUCIFERASE INFECTION ASSAY - IC50): 3.05 µM |
| NC(=O)c1ccsc1NC(=O)Cc1ccc(-c2ccccc2)cc1 | 3.7 | IC50 (PBLUC_HILL_SLOPE 3.68, PBLUC_R_SQUARED 0.581, read-out: LUCIFERASE INFECTION ASSAY - IC50): 2.04 µM |
| CN1CCN(C(=O)c2cccc(-c3cnc4cnc(-c5ccccc5Oc5ccccc5)cn34)c2)CC1 | > 6.74 | IC50 (PBLUC_HILL_SLOPE 3.72, PBLUC_R_SQUARED 0.499, read-out: LUCIFERASE INFECTION ASSAY - IC50): 3.93 µM |
| COc1cccc(NC(=O)N2CCc3nc(Nc4ccc(C(C)C)cc4)ncc3C2)c1 | > 7.9 | IC50 (PBLUC_HILL_SLOPE 3.71, PBLUC_R_SQUARED 0.181, read-out: LUCIFERASE INFECTION ASSAY - IC50): 6.78 µM |
| COc1ccc(/C(C)=N/OCC(=O)O)cc1 | > 14.8 | IC50 (PBLUC_HILL_SLOPE 3.66, PBLUC_R_SQUARED 0.112, read-out: LUCIFERASE INFECTION ASSAY - IC50): > 14.8 µM |
| COc1ccc(Cn2nc(C(=O)NC3CCCC3)c3c2CCN(C(=O)c2cc4ccccc4o2)C3)cc1 | > 6.62 | IC50 (PBLUC_HILL_SLOPE 3.73, PBLUC_R_SQUARED 0.19, read-out: LUCIFERASE INFECTION ASSAY - IC50): 4.5 µM |
| COc1ccc(-c2cc(-c3nnc4n3CCCCC4)c3c(C)nn(-c4ccccc4)c3n2)cc1 | > 10 | IC50 (PBLUC_HILL_SLOPE 3.73, PBLUC_R_SQUARED 0.529, read-out: LUCIFERASE INFECTION ASSAY - IC50): 5.69 µM |
| Cc1ccc2nc(NC(=O)c3ccc(Cl)cc3)c(C(=O)NC3CCCCC3)n2c1 | 6.42 | IC50 (PBLUC_HILL_SLOPE 3.64, PBLUC_R_SQUARED 0.503, read-out: LUCIFERASE INFECTION ASSAY - IC50): 3.51 µM |
| Cc1sc2[nH]c(CSCC(=O)c3cc(C)n(-c4ccc(Br)cc4)c3C)nc(=O)c2c1C | > 10 | IC50 (PBLUC_HILL_SLOPE 3.74, PBLUC_R_SQUARED 0.361, read-out: LUCIFERASE INFECTION ASSAY - IC50): 6.79 µM |
| Cc1cc(C(=O)N2CCc3sccc3C2)c2c(C)noc2n1 | > 10 | IC50 (PBLUC_HILL_SLOPE 3.72, PBLUC_R_SQUARED 0.0188, read-out: LUCIFERASE INFECTION ASSAY - IC50): > 10 µM |
| CNC(=O)c1ccc(CN(C2CC2)S(=O)(=O)c2ccc(C)c(C)c2)cc1 | > 10 | IC50 (PBLUC_HILL_SLOPE 3.66, PBLUC_R_SQUARED 0.689, read-out: LUCIFERASE INFECTION ASSAY - IC50): 5.91 µM |
| CCOc1ccc(S(=O)(=O)/N=C2\C=C3N(CCO)CCOC3(O)c3ccccc32)cc1 (centres undefined) | > 10 | IC50 (PBLUC_HILL_SLOPE 3.7, PBLUC_R_SQUARED 0.815, read-out: LUCIFERASE INFECTION ASSAY - IC50): 7.21 µM |
| CCCNC(=O)C1CN(C(=O)c2oc3ccccc3c2COc2ccccc2)c2ccccc2O1 (centres undefined) | > 10 | IC50 (PBLUC_HILL_SLOPE 3.71, PBLUC_R_SQUARED 0.44, read-out: LUCIFERASE INFECTION ASSAY - IC50): 6.61 µM |
| CCCCNC(=O)c1c(NC(=O)c2cc(F)ccc2C)nc2ccccn12 | > 8.96 | IC50 (PBLUC_HILL_SLOPE 3.71, PBLUC_R_SQUARED 0.517, read-out: LUCIFERASE INFECTION ASSAY - IC50): 6.93 µM |
| Cn1cc(-c2cn3c(-c4cccc(OC(F)(F)F)c4)cnc3cn2)cn1 | > 9.18 | IC50 (PBLUC_HILL_SLOPE 3.72, PBLUC_R_SQUARED 0.643, read-out: LUCIFERASE INFECTION ASSAY - IC50): 5.44 µM |

| SMILES | IC90 [µM] | also measured |
| --- | --- | --- |
| O=C(Nc1nc2ccccc2[nH]1)c1ccc(-c2ccc(F)cc2)s1 | 5.74 | IC50 (PBLUC_HILL_SLOPE 3.71, PBLUC_R_SQUARED 0.757, read-out: LUCIFERASE INFECTION ASSAY - IC50): 3.18 µM |
| CC(C)N1CCN(c2ccc(-c3cn4c(-c5cccc(O)c5)cnc4cn3)cc2)CC1 | > 7.98 | IC50 (PBLUC_HILL_SLOPE 3.65, PBLUC_R_SQUARED 0.123, read-out: LUCIFERASE INFECTION ASSAY - IC50): > 7.98 µM |
| CCN1CCN(c2cc(C(C)(C)C)nc3c(-c4ccccc4)cnn23)CC1 | > 9.08 | IC50 (PBLUC_HILL_SLOPE 3.68, PBLUC_R_SQUARED 0.383, read-out: LUCIFERASE INFECTION ASSAY - IC50): 6.05 µM |
| CCOC(=O)c1sc(N)c(C#N)c1COC(=O)/C=C/c1cn(-c2ccccc2)nc1-c1ccc(C)cc1 | > 10 | IC50 (PBLUC_HILL_SLOPE 3.64, PBLUC_R_SQUARED 0.326, read-out: LUCIFERASE INFECTION ASSAY - IC50): 6.32 µM |
| CSc1sc(-c2ccnc(SCc3ccc(Cl)cc3)n2)c(-c2ccccc2)c1C#N | > 7.08 | IC50 (PBLUC_HILL_SLOPE 3.73, PBLUC_R_SQUARED 0.295, read-out: LUCIFERASE INFECTION ASSAY - IC50): 4.71 µM |
| Cc1cccc(-c2cn3c(-c4ccc(C#N)cc4)cnc3cn2)c1C | 8.03 | IC50 (PBLUC_HILL_SLOPE 3.65, PBLUC_R_SQUARED 0.571, read-out: LUCIFERASE INFECTION ASSAY - IC50): 4.4 µM |
| O=C(NCc1ccccc1)/C(=C/c1cn(-c2ccccc2)nc1-c1cccs1)c1nc2ccccc2[nH]1 | 9.82 | IC50 (PBLUC_HILL_SLOPE 3.73, PBLUC_R_SQUARED 0.245, read-out: LUCIFERASE INFECTION ASSAY - IC50): 5.45 µM |
| CCCn1c(NC(=O)c2ccc(OCc3c(C)noc3C)c(OC)c2)nc2ccccc21 | > 10 | IC50 (PBLUC_HILL_SLOPE 3.7, PBLUC_R_SQUARED 0.447, read-out: LUCIFERASE INFECTION ASSAY - IC50): 6.12 µM |
| Oc1cc2[nH]c3ccccc3c2cc1CN1CCN(Cc2ccccc2)CC1 | > 10 | IC50 (PBLUC_HILL_SLOPE 3.66, PBLUC_R_SQUARED 0.154, read-out: LUCIFERASE INFECTION ASSAY - IC50): 6.03 µM |
| CCc1nc(N2CCN(C(=O)c3ccco3)CC2)c2ccc(Cl)cc2n1 | > 8.9 | IC50 (PBLUC_HILL_SLOPE 3.74, PBLUC_R_SQUARED 0.373, read-out: LUCIFERASE INFECTION ASSAY - IC50): 6.91 µM |
| Cc1cc(=O)nc(N/N=C/c2c(C)nn(-c3ccccc3)c2Oc2ccc(F)cc2)[nH]1 | > 10 | IC50 (PBLUC_HILL_SLOPE 3.64, PBLUC_R_SQUARED 0.538, read-out: LUCIFERASE INFECTION ASSAY - IC50): 6.15 µM |
| CCCN(CC(=O)Nc1cc(-c2ccccc2)sc1C(=O)OCC)Cc1nnc(-c2ccco2)o1 | > 10 | IC50 (PBLUC_HILL_SLOPE 3.67, PBLUC_R_SQUARED 0.341, read-out: LUCIFERASE INFECTION ASSAY - IC50): 7.32 µM |
| S=C(Nc1ccc(Cl)c(Cl)c1)N1c2ccccc2-n2cccc2C1c1cccnc1 (centres undefined) | 6.49 | IC50 (PBLUC_HILL_SLOPE 3.68, PBLUC_R_SQUARED 0.381, read-out: LUCIFERASE INFECTION ASSAY - IC50): 3.57 µM |
| O=C(Nc1ccc(Oc2ccccc2)cc1)c1noc(-c2ccccc2)n1 | 6.61 | IC50 (PBLUC_HILL_SLOPE 3.74, PBLUC_R_SQUARED 0.217, read-out: LUCIFERASE INFECTION ASSAY - IC50): 3.67 µM |
| CN(C)CC(=O)N1CCN(c2nc(/C=C/c3ccccc3)nc3sc4c(c23)CCCC4)CC1 | 5.01 | IC50 (PBLUC_HILL_SLOPE 3.64, PBLUC_R_SQUARED 0.565, read-out: LUCIFERASE INFECTION ASSAY - IC50): 2.74 µM |
| FC(F)(F)c1cc(NCc2ccccc2Cl)nc(-c2ccccn2)n1 | 6.29 | IC50 (PBLUC_HILL_SLOPE 3.68, PBLUC_R_SQUARED 0.577, read-out: LUCIFERASE INFECTION ASSAY - IC50): 3.46 µM |
